Marks after values point to notes of the source that are not given here.
Assays:
3T3-L1 preadipocytes = assay: Differentiation and adipogenesis of 3T3-L1 preadipocytes, Oil Red O (Example IV); format: cell-based, Mouse; settings: 5, 10, 15, 20, 25 and 30 μM for 8 days
Procedure: Mouse 3T3-L1 pre-adipocytes purchased from the American Type Culture Collection (Rockville, Md.) were grown in Dulbecco's Modified Eagle's Medium (DMEM) supplemented with 2 mM glutamine (GIBCO BRL), 1% penicillin/streptomycin (10000 units of penicillin/mL and 10 mg streptomycin/mL) and 10% fetal calf serum (FCS) at 37° C. under a humidified 5% CO2 atmosphere. Briefly, cells were seeded into 24-well (2×10^4/mL) or 10 cm dish with DMEM containing 10% fetal bovine serum (FBS) to full confluence. […]
At the end of differentiation, cells were washed twice with phosphate-buffered saline (PBS), fixed with 10% formalin for 60 min, stained with 0.5% Oil Red O in isopropanol for 1 h at room temperature. […] To quantify lipid accumulation, the stained lipid droplets were dissolved in isopropanol and the absorbance was measured at 520 nm.
Differentiation of 3T3-L1 preadipocytes stained with Oil Red O and photographed (upper and middle). 3T3-L1 preadipocytes were incubated with MDI (DMEM with IBMX, DEX, and insulin) for 2 days and then replaced with DMEM containing insulin with or without Calebin A (0, 5, 10, 15, 20, 25 and 30 μM), respectively, for 8 days, Lipid content was extracted from Oil Red O stained cells by 2-propanol and quantified by spectrophotometric analysis at 520 nm.

adiponectin [1] = assay: Study 2: serum adiponectin by ELISA in obese mice; format: in vivo, C57 mice; settings: Study 2, end of study period
Procedure: Further, on completion of the study period blood samples were collected from all the animals in […] for estimation of systemic expression of leptin and adiponectin. Blood samples were collected humanely from retro-orbital plexus puncture method under mild ether anesthesia with the help of a fine capillary tube. The blood samples collected in tubes without anticoagulant were centrifuged at 3000 rpm for 10 minutes to obtain serum which was subjected to ELISA technique for the estimation of leptin and adiponectin. The import of leptin and adiponectin expression as biomarkers in obesity has been discussed in aforesaid paragraphs. […] Low systemic adiponectin levels have been cited as predictive factors in the progression of disease states like Type II Diabetes mellitus (Chamukuttan Snehalatha et al, “Plasma Adiponectin Is an Independent Predictor of Type 2 Diabetes in Asian Indians”, Diabetes Care December 2003 vol. 26 no. 12 3226-3229).

[2] = tested on: Fully differentiated adipocytes; assay: Lipolysis (glycerol release) in fully differentiated adipocytes; format: cell-based, Mouse; settings: fully differentiated adipocytes (8 days)
Procedure: (§1) Fully differentiated adipocytes (8 days) previously untreated with Calebin A as described in procedural steps outlined in Example IV were treated with Calebin A at concentrations of 5-30 μM. Lipolysis was linked to the breakdown of lipids into glycerol that was released into the cell culture medium and detected thereof. […] Thus, in another most preferred embodiment, the present invention relates to a method of inducing lipolysis in mammalian adipocytes, said method comprising the step of treating mammalian adipocytes with varying concentrations of Calebin A to bring about the effect of dose dependant lipolysis in said adipocytes. […] Epididymal fat pads were dissected and fixed in 10% buffered formalin for at least 24 hours, then dehydrated with a sequence of ethanol solutions and processed for embedding in paraffin. Sections of 5-6 μm in thickness were cut, de-paraffinized, rehydrated, stained with haematoxylin & eosin (H&E) and subjected to photomicroscopic assessment. Adipocyte size was determined using a Nikon light microscope (Japan) equipped with an ocular micrometer at 200× magnification in 10 random fields per section. […]

adiponectin [3] = assay: Estimation of adiponectin in adipocyte supernatant by ELISA; format: cell-based; settings: human adipocytes
Procedure: 3T3-L1 cells approximately 60×10^4 cells are seeded for 48-72 hrs to get 70-80% confluence. After 48 hrs 200 μl of AIM (Adipogenesis induction medium) freshly prepared is added. 72 hrs later 200 μl APM (Adipogenesis progression medium) with the test compounds in different concentrations is added to the wells. The cells are incubated for 48 hrs in a humidified atmosphere (37° C.) of 5% CO2 and 95% air. The supernatant is collected and stored for the estimation of leptin, adiponectin, IL-6 and TNF-α by ELISA. Cells are fixed by adding 100 μl of 10% formalin and ORO staining is done. OD is read at 492 nm in microplate reader. The results are expressed as IC50 values using Graphpad prism software.
The percentage of inhibition of adipogenesis is calculated as follows, % inhibition=C−T/[…] Where C-absorbance of Oil red 0 in differentiating/undifferentiated cells T-absorbance of Oil Red-O in sample treated differentiating/undifferentiated cells. The estimation of leptin, adiponectin, IL-6 and TNF-α is done according to user's manual from R&D Systems.

[4] = tested on: epididymal fat (adipocytes); assay: Adipocyte size in epididymal fat of HFD mice (H&E histology); format: in vivo, C57BL/6J mice; settings: Calebin A 0.25% and 1%, 12 weeks
Procedure: as §1

[5] = Serum biochemistry (TCHO, TG, HDL, GOT, GPT) in HFD-fed mice, 12 weeks; format: in vivo, C57BL/6J mice; settings: for GPT: HFD 38.25 ± 8.92; for HDL: HFD 109.40 ± 1.34; for TG: HFD 151.00 ± 8.89; for TCHO: HFD 162.67 ± 15.89; for GOT: HFD 335.28 ± 18.80
Procedure: Food cups were replenished with fresh diet daily. […] Statistical analysis was done by Student's t test.
C57BL/6J mice fed with HFD for period of 12 weeks were evaluated for serum levels of GOT and GTP. Results indicated enhanced serum GOT and GTP (TABLE XI) when compared to the ND group.
Data were presented as the mean±SE (n=8 per group). […] ND: normal diet; HFD: high fat diet.

What does the source list for COc1cc(/C=C/C(=O)COC(=O)/C=C/c2ccc(O)c(OC)c2)ccc1O [Calebin A]?
differentiation and adipogenesis of 3T3-L1 preadipocytes (3T3-L1 preadipocytes): inhibits; enhancing the adiponectin expression in the serum of obese animals (adiponectin [1]): significant effect; release of glycerol into the medium (lipolysis) ([2]; 30 μM): Glycerol was detected; release of glycerol into the medium (lipolysis) ([2]; 5-20 μM): did not bring about the release of glycerol; percentage enhancement of adiponectin expression (adiponectin [3]; 0.5 μg/ml): 27.12%; percentage enhancement of adiponectin expression (adiponectin [3]; 1.0 μg/ml): 34.06%; percentage enhancement of adiponectin expression (adiponectin [3]; 2.0 μg/ml): 32.8%; size of adipocytes [4]: remarkable reduction; GPT ([5]; HFD + 0.25% Calebin A): 23.00 ± 2.92^c U/l; HDL ([5]; HFD + 0.25% Calebin A): 107.80 ± 2.05^a mg/dl; TG ([5]; HFD + 0.25% Calebin A): 121.25 ± 6.55^b mg/dl; TCHO ([5]; HFD + 0.25% Calebin A): 136.50 ± 7.51^c mg/dl; GOT ([5]; HFD + 0.25% Calebin A): 110.33 ± 2.52^b U/l; GPT ([5]; HFD + 1% Calebin A): 32.50 ± 3.00^a U/l; HDL ([5]; HFD + 1% Calebin A): 104.50 ± 8.80^a mg/dl; TG ([5]; HFD + 1% Calebin A): 89.75 ± 5.85^b mg/dl; TCHO ([5]; HFD + 1% Calebin A): 110.50 ± 17.97^a mg/dl; GOT ([5]; HFD + 1% Calebin A): 77.50 ± 11.12^c U/l

From US9737502B2, “Calebin A for hepatic steatosis” (SAMI LABS LIMITED, priority 2011, dated 2017)
